Several values for one entry are separate records, joined by “and”; a condition that tells them apart may be missing. Equal entries are not always repeated.
Key:
membrane-bound rMpAOX = membrane-bound rMpAOX (Moniliophthora perniciosa, UniProt A8QJP8); assay: Membrane-bound rMpAOX activity with putative activators (O2 uptake, oxygraph; dose-response); type: biochemical;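 on Fractional velocity, %: 100% is the maximal rate reached in the activator titration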
Method: E. coli membrane preparation was performed as described with minor modifications. […] The cells were disrupted using two passes at […] through a pre-cooled Constant cell disruption system (Constant Systems Ltd). The lysate was centrifuged for 15 min at 16,000 rcf, and the pelleted unbroken cells and large cell debris were discarded. The supernatant was centrifuged for 90 min at 200,000 rcf to collect the fragmented membranes.
(§1) Respiration rates were recorded before and after the addition of putative AOX activators, such as 5′-ADP, 5′-AMP, 5′-GDP, 5′-GMP, glyoxylate, oxaloacetate, pyruvate or succinate (1 mM each unless stated otherwise). […] Data were acquired with the Multiskan FC Microplate Photometer (ThermoFisher). […] Absorbance readings were taken periodically and a blank reactions (substrate without enzyme) were included in every assay and were used to determine and subtract the autoxidation rate (background). Proteoliposomes were assayed as described for the E. coli membrane fraction except that no KCN was included and 0.5 µL of the prep (~50 ng rMpAOX) were added into the reaction. When tested, inhibitors were preincubated with the enzyme in reaction buffer for 2–5 min before starting the reaction by the addition of substrate. The path length (i.e., the height of the reaction medium inside the well) was calculated based on the reaction volume and the well cross-section area informed by the supplier. GraphPad Prism 7.0 (GraphPad Software Inc.) was used for function fitting.

purified rMpAOX = purified rMpAOX (Moniliophthora perniciosa, UniProt A8QJP8); assay: Purified (detergent-solubilised) rMpAOX, Q1H2 oxidation; type: biochemical; settings: GMP up to 0.5 mM, purified rMpAOX
Chain of purified rMpAOX (A8QJP8 entry or part of it): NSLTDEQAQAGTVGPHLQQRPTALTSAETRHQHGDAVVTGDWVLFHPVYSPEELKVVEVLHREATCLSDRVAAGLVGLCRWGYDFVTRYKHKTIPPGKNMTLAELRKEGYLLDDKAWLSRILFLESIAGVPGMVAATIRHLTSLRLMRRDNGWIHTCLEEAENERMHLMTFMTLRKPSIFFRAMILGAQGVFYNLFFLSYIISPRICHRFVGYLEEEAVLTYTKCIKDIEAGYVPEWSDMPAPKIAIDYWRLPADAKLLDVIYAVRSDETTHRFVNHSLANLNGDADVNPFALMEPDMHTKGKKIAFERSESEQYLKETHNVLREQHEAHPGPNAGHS
Method: The E. coli membrane fraction was resuspended with 50 mM Tris-HCl pH 7.5, 20% glycerol, 200 mM MgSO4 and 1% Fos-Choline-12 (FC-12) instead of MOPS buffer. The sample was left under gentle rocking for 1 h at 4 °C, after which it was centrifuged at 200,000 rcf for 30 min. […] T. Elthon, Nebraska, USA. Protein content was estimated through the Bradford method[63] and bovine serum albumin as standard.
as §1

[1] = target: rMpAOX incorporated into proteoliposomes (Moniliophthora perniciosa, UniProt A8QJP8); assay: rMpAOX incorporated into proteoliposomes with Q10 and NDH-2 (NADH oxidation); type: biochemical; settings: PL system
Chain of rMpAOX incorporated into proteoliposomes (A8QJP8 entry or part of it): as above
Method: Proteoliposomes (PL) were prepared as previously described[44],[45], except that NDH-2 was used instead of complex I and 0.5% DDM was used instead of OG. […] For kinetic studies, PLs were prepared with 50 µg rMpAOX and no NDH-2—in this case, pure NDH-2 was added directly into the enzymatic reaction mixture at a saturating concentration. Briefly, lipids and Q10 stocks in chloroform were mixed in a glass vial and the chloroform dried under a nitrogen stream. The lipids were hydrated and extruded through a 100 nm NanoSizer MINI Liposome Extruder (T&T Scientific) followed by the addition of protein. After treatment with the Bio-Beads SM-2 Resin (Bio-Rad), proteolipososmes were harvested by ultracentrifugation and resuspended in 150 µL of buffer. Enzymatic assays were performed on the same day.
as §1

[2] = system: WBD (witches' broom disease of cocoa, M. perniciosa); design: method as in PMID 30350447; settings: 200 µM, in the absence of a main respiration inhibitor; cited from earlier work
M. perniciosa = system: M. perniciosa; design: method as in PMID 22443281, PMID 30350447; settings: cited from earlier work

Chain of membrane-bound rMpAOX (A8QJP8 entry or part of it): as above

## Nc1nc2c(ncn2[C@@H]2O[C@H](COP(=O)(O)O)[C@@H](O)[C@H]2O)c(=O)[nH]1 [GMP, 5′-GMP]
membrane-bound rMpAOX; 1 mM GMP
  Maximum membrane-bound rMpAOX oxygen uptake: 0.67 µmol O2 min^−1 mg total protein^−1
  Maximum membrane-bound rMpAOX oxygen uptake per mg AOX: 5 µmol O2 min^−1 mg AOX^−1
membrane-bound rMpAOX; 1 mM activator
  Increase of membrane-bound rMpAOX oxygen uptake: 9.8 times
membrane-bound rMpAOX; 1 mM each, single independent measurements (Fig1a)
  Fold-change in membrane-bound rMpAOX O2 uptake: 8.8788 and 10.5259 and 10.0722
membrane-bound rMpAOX; [activator] 0.025 mM (Fig1b)
  Fractional velocity, %: 56.6% and 57.7%
membrane-bound rMpAOX; [activator] 0.075 mM (Fig1b)
  Fractional velocity, %: 100.5% and 91.4%
membrane-bound rMpAOX; [activator] 0.175 mM (Fig1b)
  Fractional velocity, %: 125.1% and 121.5%
membrane-bound rMpAOX; [activator] 0.375 mM (Fig1b)
  Fractional velocity, %: 153.9% and 143.6%
membrane-bound rMpAOX; [activator] 0.625 mM (Fig1b)
  Fractional velocity, %: 166.3% and 158.4%
membrane-bound rMpAOX; [activator] 1.125 mM (Fig1b)
  Fractional velocity, %: 182.1% and 175.1%
membrane-bound rMpAOX; [activator] 2.125 mM (Fig1b)
  Fractional velocity, %: 186.8% and 187.9%
membrane-bound rMpAOX; [activator] 4.125 mM (Fig1b)
  Fractional velocity, %: 193.5% and 196.9%
membrane-bound rMpAOX; [activator] 6.625 mM (Fig1b)
  Fractional velocity, %: 206.9% and 200.9%
membrane-bound rMpAOX; membrane-bound rMpAOX, 4-parameter sigmoid fit, read-out: EC50 of rMpAOX activation
  EC50: 166 µM
Purified rMpAOX
  Effect on rMpAOX kinetic parameters KM and VMax: did not alter
[1]
  Sensitivity of rMpAOX to GMP: not regained

## O=C(Nc1cccc(Br)c1)c1cccc(F)c1 [N-(3-bromophenyl)-3-fluorobenzamide]
[2]
  Effect in plants against WBD: protective effect

## CCCOC(=O)c1cc(O)c(O)c(O)c1 [n-propyl gallate]
M. perniciosa
  Concentrations that inhibit M. perniciosa growth: millimolar concentrations

— PMC7248098, “Biochemical characterization and inhibition of the alternative oxidase enzyme from the fungal phytopathogen Moniliophthora perniciosa” (Communications Biology, 2020)
